Measured values from patent US12605407B2, “Methods to induce terminal differentiation in stem cells by interfering with DNA replication, methods of inducing pancreatic differentiation, and differentiated cells obtained thereof” (priority 2018, dated 2026).

Legend:
pancreatic progenitors = test: Beta cell differentiation from human pluripotent stem cells, flow cytometry of C-peptide and NKX6.1 positive cells; format: cell-based; settings: for effectiveness to induce differentiation of pancreatic progenitors to C-peptide positive cells, comparison within panel: day 27; for percentage / number of C-peptide positive cells compared to control: end of differentiation on day 27, compounds added day 15 to day 27
Protocol: Beta cells differentiated from human pluripotent stem cell lines as described in Example 2 (Sui et al., 2018b). Indicated compounds that function as cell cycle inhibitors were added individually from day 15 to day 27 with concentration listed below:
The DNA replication inhibitors used in this study: 0.1 μM, 0.5 μM and 1 μM Aphidicolin (A0781, Sigma-Aldrich); 2.5 μM Cisplatin (232120, EMD Millipore); 100 μM Ciprofloxacin (S2027, Selleck Chemicals); 10 μM Pyridostatin (S7444, Selleck Chemicals); 10 μM E2F Inhibitor (324461, EMD Millipore); 0.05 μM A485 (6387, Tocris); 2 μM RL5a (SML2187, Sigma-Aldrich); and 2 μM Etoposide (E55500, Research Products International). Indicated compounds were added individually from day 15 to day 27 with indicated concentration.
(§1) The beta cell clusters were dissociated using TrypLE™ Express into single cells. Cells were fixed with 4% PFA for 10 min and followed by permeabilization at −20° C. with cold methanol for 10 min. Primary antibodies were added at a dilution of 1:100 in autoMACs Rinsing Solution (Cat. No. 130-091-222, Miltenyi Biotec) containing 0.5% BSA at 4° C. for 1 hour. Secondary antibodies were added at a dilution of 1:500 at room temperature for 1 hour. The cells were filtered with BD Falcon 12×75 mm tube with cell strainer cap (Cat. No. 352235, BD) and subsequently analyzed by flow cytometer. Data were analyzed using Flowjo software. Negative controls were performed by only adding secondary antibodies.
Aphidicolin (APH), a DNA polymerase inhibitor, was used to inhibit DNA replication (Koundrioukoff et al., 2013). […] The insulin expressing cells were evenly distributed in the islet-like clusters with high percentage indicated by the expression of GFP, whereas some parts of the clusters in control remained GFP negative (FIG. 1D).

[1] = system: stem cell derived beta cells; test: Stability of beta cell identity in long-term culture after removal of compound at day 27; format: cell-based, human; settings: additional 30 days of culture (day 60)
Protocol: as §1
With APH, a high proportion of cells in the islet-like clusters were positive for C-peptide and NKX6.1, a transcription factor for maintaining the beta cell identity and functional maturation (Schaffer et al., 2013). […] Beta cells were cultured for additional 7 days until about day 34 and 30 days until about day 60 upon removal of these compounds at day 27. […] In contrast, in APH treated cells, there was no decrease in C-peptide or NKX6.1 on day 34 (FIG. 5A). […] After further culturing of the cells for extra 30 days, very few of cells in control group remained GFP expression and were positive for C-peptide.
The ability of other DNA replication inhibitors to stabilize the beta cell identity was investigated. The expressions of GFP were maintained after releasing cells from these inhibitors for 7 days until day 34. With additional 30 days of culture, the expressions of GFP were reduced in all conditions at certain levels, but the cells treated with Cis and Eto expressed higher GFP than the cells treated with APH compared to the other conditions (FIG. 5E, FIG. 5F).

| Compound | effectiveness to induce differentiation of pancreatic progenitors to C-peptide positive cells, comparison within panel (pancreatic progenitors) | percentage / number of C-peptide positive cells compared to control (pancreatic progenitors) | expressions of GFP (insulin) [1] |
| --- | --- | --- | --- |
| RL5a | less effective | failed to increase | – |
| O=C1NC(=O)c2c1c1c3ccccc3[nH]c1c1[nH]c3cc(Br)ccc3c21 [CDK4] | less effective | – | – |
| N.N.[Cl][Pt][Cl] [cisplatin, Cisplatin] | most effective | – | higher GFP |
| COc1cc([C@@H]2c3cc4c(cc3[C@@H](O[C@@H]3O[C@@H]5CO[C@@H](C)O[C@H]5[C@H](O)[C@H]3O)[C@H]3COC(=O)[C@H]23)OCO4)cc(OC)c1O [Etoposide] | most effective | – | higher GFP |
| CNC(=O)Nc1ccc2c(c1)CC[C@@]21OC(=O)N(CC(=O)N(Cc2ccc(F)cc2)[C@@H](C)C(F)(F)F)C1=O [P300 inhibitor] | – | no significant increase | – |
